Experimental data from patent publication US6075044A, “Heterocyclic derivatives as inhibitors of purine salvage phosphoribosyltransferases” (The Regents of the University of California, priority 1998, dated 2000).
Where two headings read alike, the source gives them in different places.

Assays:
Assay type in all cases: biochemical
GPRTase from G. lamblia = biological target: T1, GPRTase from G. lamblia (Giardia duodenalis, UniProt Q24973); assay: Enzyme assay, [14C]-guanine to GMP conversion, G. lamblia GPRTase; conditions: recombinant enzyme, 10% DMSO, 37° C., 5 min, pH 6.8, read-out: IC50 GLG (GPRTase from G. lamblia)
T1 sequence (Q24973 1-230): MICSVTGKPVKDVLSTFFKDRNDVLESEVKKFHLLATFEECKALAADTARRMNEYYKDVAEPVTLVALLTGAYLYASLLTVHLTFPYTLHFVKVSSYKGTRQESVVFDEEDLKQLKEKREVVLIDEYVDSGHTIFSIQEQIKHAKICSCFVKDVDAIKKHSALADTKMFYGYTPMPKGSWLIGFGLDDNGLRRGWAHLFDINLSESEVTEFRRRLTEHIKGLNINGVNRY
Method: (§1) Protocol For Testing Compounds of Formula I Against Tritrichomonas foetus HGXPRTase, Giardia lamblia GPRTase and Human HGPRTase
(§2) The enzyme assay mixture, in a final volume of 20 μl, consisted of the following:
(§3) Bis-Tris-HCl, pH 6.8 0.3 M
(§4) 5-Phospho-1-ribosylpyrophosphate 0.1 mM
(§5) [^14 C]-guanine (46 mCi/mmole) 22 μM
(§6) Thus, all the assay mixtures contain 10% DMSO.
(§7) The recombinant enzyme, purified to homogeneity in the native form, was diluted in a buffer solution of 50 mM Bis-Tris-HCl, pH 6.8, 6 mM MgCl2, and 1 mM dithiothreitol to a final concentration of 34 μg enzyme protein per ml. Two and one half of the diluted enzyme solution was added to the 20 μl reaction mixture, and maintained at 37° C., to start the enzyme-catalyzed reaction. The reaction was allowed to proceed at 37° C. for exactly 5 min, and then stopped by adding 23 μl of 1 mM guanine and 1 mM GMP to the reaction mixture.
(§8) Twenty μl of the final mixture was spotted on a polyethyleneimine-cellulose thin layer plate and chromatographed with 5 mM ammonium acetate pH 5.0. The unreacted [^14 C]-guanine migrated at the forefront of the chromatography with an Rf value of 0.62, whereas the product [^14 C]-GMP remained at the origin due to the negative charge of the molecule at pH 5.0. The spots of guanine and GMP were cut out from the plate, and the radioactivity in each spot measured with a Beckman LS-3801 scintillation counter. The radioactivities associated with the GMP and diminished from the guanine sample were used to calculate the amount of substrate converted to product within a unit time period.
(§9) Protocol For Testing Compounds of Formula II Against Tritrichomonas foetus HGXPRTase Giardia lamblia GPRTase and Human HGPRTase
as §7, with “half μl” for “half”

HGXPRTase from T. foetus = biological target: T2, HGXPRTase from T. foetus (Tritrichomonas foetus, UniProt P51900); assay: Enzyme assay, [14C]-guanine to GMP conversion, T. foetus HGXPRTase; conditions: read-out: IC50 TFH (HGXPRTase from T. foetus)
T2 construct: made in house; host or cells: Escherichia coli
T2 sequence (P51900 1-183): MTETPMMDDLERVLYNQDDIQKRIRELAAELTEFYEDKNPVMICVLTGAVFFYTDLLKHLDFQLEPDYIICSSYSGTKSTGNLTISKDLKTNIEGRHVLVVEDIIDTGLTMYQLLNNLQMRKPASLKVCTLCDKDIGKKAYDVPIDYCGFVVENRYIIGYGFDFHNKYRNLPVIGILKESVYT
Method: as §1, §2, §3, §4, §5, §6, §7, §8, §9
as §7, with “half μl” for “half”

Human HGPRTase = biological target: T3, Human HGPRTase (Homo sapiens, UniProt P00492); assay: Enzyme assay, [14C]-guanine to GMP conversion, human HGPRTase; conditions: recombinant enzyme, 10% DMSO, 37° C., 5 min, pH 6.8, read-out: IC50 HH (Human HGPRTase)
T3 sequence (P00492 1-218): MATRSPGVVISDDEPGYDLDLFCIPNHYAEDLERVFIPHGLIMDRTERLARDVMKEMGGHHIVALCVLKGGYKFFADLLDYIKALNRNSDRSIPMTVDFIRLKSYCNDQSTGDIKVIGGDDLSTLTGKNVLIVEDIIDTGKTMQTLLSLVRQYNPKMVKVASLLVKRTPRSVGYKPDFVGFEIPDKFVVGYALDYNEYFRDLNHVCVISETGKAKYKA
Method: as §1, §2, §3, §4, §5, §6, §7, §8, §9
as §7, with “half μl” for “half”

[1] = Table 2, compounds of Formula I
[2] = Table 2, compounds of Formula I, recombinant enzyme, 10% DMSO, 37° C., 5 min, pH 6.8
[3] = Table 4, compounds of Formula II
[4] = Table 4, compounds of Formula II, recombinant enzyme, 10% DMSO, 37° C., 5 min, pH 6.8

Row | Structure (SMILES) | IC50 (GPRTase from G. lamblia; [1]) [µM] | IC50 (HGXPRTase from T. foetus; [2]) [µM] | IC50 (Human HGPRTase; [1]) [µM] | IC50 (GPRTase from G. lamblia; [3]) [µM] | IC50 (HGXPRTase from T. foetus; [4]) [µM] | IC50 (Human HGPRTase; [3]) [µM] | IC50 (HGXPRTase from T. foetus) [µM]
1 | O=C1Nc2ccccc2C1=NNc1ccc([N+](=O)[O-])cc1 [(I)1, 3-(4-nitrophenylhydrazono)-1,3-dihydroindol-2-one] | > 1000 | 240 | 200 | – | – | – | –
2 | O=C1Nc2ccccc2C1=NN=Cc1ccc([N+](=O)[O-])cc1 [(I)2, 3-(4-nitrophenylidenehydrazono)-1,3-dihydroindol-2-one] | > 1000 | 50 | > 1000 | – | – | – | –
3 | O=C1Nc2ccccc2C1=NN=Cc1ccc(Cl)cc1 [(I)3, 3-(4-chlorophenylidenehydrazono)-1,3-dihydroindol-2-one] | > 1000 | 170 | > 1000 | – | – | – | –
4 | O=C1Nc2ccccc2C1=NN=Cc1cc(Cl)cc(Cl)c1O [(I)4, 3-(2-hydroxy-3,5-dichlorophenylidenehydrazono)-1,3-dihydroindol-2-one] | > 1000 | > 1000 | – | – | – | – | –
5 | O=C1Nc2ccccc2C1=NN=Cc1cc(Br)ccc1O [(I)5, 3-(2-hydroxy-5-bromophenylidenehydrazono)-1,3-dihydroindol-2-one] | > 1000 | 460 | > 1000 | – | – | – | –
6 | O=C1Nc2ccc(Br)cc2C1=NN=Cc1ccc(Cl)c(Cl)c1 [(I)6, 3-(3,4-dichlorophenylidenehydrazono)-5-bromo-1,3-dihydroindol-2-one] | > 1000 | 300 | > 1000 | – | – | – | –
7 | COc1ccc(CCNC=C2C(=O)Nc3ccccc32)cc1 [(I)7] | > 1000 | 200 | > 1000 | – | – | – | –
8 | O=C(COc1ccc([N+](=O)[O-])cc1)NN=C1C(=O)Nc2ccccc21 [(I)8] | > 1000 | 180 | > 1000 | – | – | – | –
9 | CC(Oc1ccc(Cl)cc1Cl)C(=O)NN=C1C(=O)Nc2ccc(Br)cc21 (centres unmarked) [(I)9, 3-[2-(2,4-dichlorophenoxy)propanoylhydrazono]-5-bromo-1,3-dihydroindol-2-one] | 30 | 85 | > 1000 | – | – | – | –
10 | COc1ccc(CC(=O)N/N=C2\C(=O)Nc3ccc(Br)cc32)cc1OC [(I)10, 3-[(3,4-dimethoxyphenyl)acetylhydrazono]-5-bromo-1,3-dihydroindol-2-one] | 90 | 320 | > 1000 | – | – | – | –
11 | O=C(Nc1cccc([N+](=O)[O-])c1)c1ccc2c(c1)C(=O)OC2=O [(II)1, 5-[N-(3-nitrophenyl)carbamoyl]-1,3-isobenzofurandione] | – | – | – | > 1000 | 300 | > 1000 | –
12 | CC(=O)Nc1ccc(NC(=O)c2ccc3c(c2)C(=O)OC3=O)cc1 [(II)2, 5-[N-(4-acetamidophenyl)carbamoyl]-1,3-isobenzofurandione] | – | – | – | > 1000 | 140 | > 1000 | –
13 | O=C(Nc1ccc(Cl)c(Cl)c1)c1ccc2c(c1)C(=O)OC2=O [(II)3, 5-[N-(3,4-dichlorophenyl)carbamoyl]-1,3-isobenzofurandione] | – | – | – | 30 | – | > 1000 | 50
14 | COc1ccc([N+](=O)[O-])cc1NC(=O)c1ccc2c(c1)C(=O)OC2=O [(II)4, 5-[N-(2-methoxy-5-nitrophenyl)carbamoyl]-1,3-isobenzofurandione] | – | – | – | 500 | 70 | > 1000 | –
15 | O=C(Nc1ccc(Cl)cc1Cl)c1ccc2c(c1)C(=O)OC2=O [(II)5, 5-[N-(2,4-dichlorophenyl)carbamoyl]-1,3-isobenzofurandione] | – | – | – | 200 | 80 | > 1000 | –
16 | COc1ccc(Cl)cc1NC(=O)c1ccc2c(c1)C(=O)OC2=O [(II)6, 5-[N-(2-methoxy-5-chlorophenyl)carbamoyl]-1,3-isobenzofurandione] | – | – | – | 750 | 22 | > 1000 | –
17 | O=C(Nc1ccc2c(c1)C(=O)OC2)c1ccc(Cl)cc1 [(II)7, 5-[N-(4-chlorophenyl)carbonylamino]-3-isobenzofuranone] | – | – | – | > 1000 | 380 | > 1000 | –
18 | O=C1NC(=O)c2cc([N+](=O)[O-])c(SCc3ccc(Cl)cc3)cc21 [(II)8, 5-[N-(4-chlorophenyl)methylthio]-6-nitrophthalimide] | – | – | – | > 1000 | 425 | > 1000 | –
